Measurements reported in patent US11549115B2, “Compositions and methods for regulated gene expression” (YALE UNIVERSITY, priority 2017, dated 2023).

What was measured:
[1] = tested on: Bt::tetR P1TDP^GH023-NanoLuc; assay type: in vivo, mice
Protocol: Germ-free Swiss Webster mice were orally gavaged with a mixture of 1×10^8 CFU of each of 14 human gut microbes shown in FIG. 12D and Table 3. With the exception of the reporter strain, all species are sensitive to gentamicin and/or erythromycin (data not shown). Colonization was allowed to stabilize for at least 7 days prior to the start of the experiment. Fecal pellets were collected daily, and mice were given aTC (100 μg/mL) in the drinking water for 48 hours after stool collection on Day 3. Fecal samples were homogenized, and fibrous/insoluble matter removed as described above. From the supernatant, 200 μL was stored for DNA purification as previously described (Goodman, A. L. et al., 2011, Nat. Protoc., 6:1969-1980) and subsequent qPCR analysis (described below), 10 μL was used for CFU determination of the reporter strain by plating dilutions on BHI-blood agar plates containing gentamicin and erythromycin, and 500 μL was used for luminescence measurements (described below).
At each time point, abundance of each species was assessed by qPCR from fecal DNA using strain specific primers described previously (Cullen, T. W. et al., 2015, Science, 347:170-175). qPCR was performed as described (Goodman, A. L. et al., 2009, Cell Host and Microbe, 6:279-289; Martens, E. C. et al., 2008, Cell Host and Microbe, 4:447-457) using a CFX96 instrument (BioRad) and SYBR FAST universal master mix (KAPA Biosystems). Mean strain quantities were calculated using a standard curve.
The 500 μL collected from the resuspended fecal supernatant was centrifuged at 21,130×g for 3 minutes to pellet bacterial cells, which were then resuspended in 50 μL 1× BugBuster (Novagen) in 1×PBS and lysed by one round of freeze-thaw and 10 minutes of nutation at 26° C. Samples were centrifuged at 21,130×g for 10 minutes at 4° C., and 10 μL of the supernatant was mixed with an equal volume of NanoLuc Reaction Buffer to induce luminescence production. Luminescence was measured after a 5 minute incubation at 26° C. on a plate reader (BioTek Synergy H1) with an integration time of 1 second at a gain setting of 100. […]

[2] = in vivo; cited from earlier work
[3] = LC-MS quantification of aTC in fecal pellets; assay type: in vivo, mice
Protocol: Germ-free Swiss Webster mice were maintained in flexible plastic gnotobiotic isolators with a 12-hour light/dark cycle and provided a standard, autoclaved mouse chow (5K67 LabDiet, Purina) ad libitum and autoclaved water for the duration of the experiment. Filter-sterilized aTC was added to drinking water stored in red-tinted bottles (Ancare, #PC9RH8.5RD) to inhibit degradation by light. Mice were co-housed for the duration of the experiments. Cage changes were always carried out when aTC was withdrawn from drinking water. Fecal and luminal samples were collected and processed in 2.0 mL screw cap tubes (Axygen Scientific; #SCT-200-C). Germ free status was monitored by 16S rDNA-targeted PCR of fecal DNA and anaerobic and aerobic culture of fecal samples.
Groups of 6 germ-free Swiss Webster mice were orally gavaged with 1×10^9 CFU of the desired B. thetaiotaomicron strain. Fecal samples (˜100-200 mg) were collected daily for 12 days. aTC (100 μg/mL) was administered in drinking water for 12 hours after fecal collection on day 1. Fecal samples were homogenized in 1 mL of 1× tris-buffered saline (TBS) with a single 5 mm stainless steel bead using a bead beater (BioSpec Products) at 26° C. for 1 minute on the high setting, followed by vortexing at top speed for 8 minutes. Samples were then centrifuged at 500×g for 1 minute to pellet fibrous and insoluble matter. Bacterial cells from 600 μL of the supernatant was isolated through centrifugation at 21,130×g for 3 minutes, resuspended in 50 μL of Sialidase Reaction buffer (50 mM Tris-HCl pH 7.0, 5 mM EDTA) containing 1× BugBuster, and stored at −80° C. for ex vivo sialidase measurements (described below).
To the remaining material, 400 mg of 0.1 mm glass beads was added and further homogenized by bead beating for 2 minutes. Insoluble material was pelleted by centrifuging the sample for 3 minutes at 21,130×g, and 20 μL of the supernatant was used for mass spectrometry measurements of sialic acid and aTC by liquid chromatography coupled tandem mass spectrometry (QqQ) and mass spectrometry (qTOF), respectively.
For aTC measurements, 5 μL of internal standard solution (0.25 μM sulfamethoxazole and caffeine in H2O) were added to each sample (20 μL) and further processed as described above. Dried samples were re-suspended in 4 μL methanol and diluted in 12 μL H2O. Chromatographic separation was performed on a C18 Kinetex Evo column (Phenomenex, 100 mm×2.1 mm, 1.7 μm particle size) using mobile phase A: H2O, 0.1% formic acid and B: methanol, 0.1% formic acid at 45° C. 10 μL of sample were injected at 100% A and 0.4 mL/min flow followed by a linear gradient to 95% B over 5.5 min and 0.4 mL/min flow leading to aTC, caffeine and sulfamethoxazole elution at 3.0, 1.9, 2.1 min, respectively. The qTOF was operated in positive scanning mode (50-1000 m/z) and the following source parameters: VCap: 3500 V, nozzle voltage: 2000 V, gas temp: 225° C.; drying gas 13 L/min; nebulizer: 20 psig; sheath gas temp 225° C.; sheath gas flow 12 L/min. Online mass calibration was performed using a second ionization source and a constant flow (5 μL/min) of reference solution (121.0509 and 922.0098 m/z). Compounds were identified based on the retention time of chemical standards and their accurate mass (tolerance 20 ppm). The MassHunter Quantitative Analysis Software (Agilent, version 7.0) was used for peak integration and quantification was based on calibration curves using chemical standards and the signal intensity of the internal standard spiked into each sample.

[4] = 12 hours of aTC (100 μg/mL) via drinking water

SMILES: Cc1c2c(c(O)c3c(O)cccc13)C(=O)[C@]1(O)C(=O)C(C(N)=O)=C(O)[C@@H](N(C)C)[C@@H]1C2 [aTC, Anhydrotetracycline]
- complete repression after removal of the inducer ([1]; 14-species community): 7 to 9 days
- increase of luminescence in fecal pellets ([1]; 14-species community, within 24 hours of 100 μg/mL aTC): ~4,500 fold
- impact on community structure ([1]; alpha and beta diversity, 19-day experiment): did not impact community structure
- concentration in drinking water that does not adversely affect mouse health [2]: 100 µg/mL
- time to spike of inducer levels in fecal pellets [3, 4]: ≤ 12 h
- time to undetectable after the spike [3, 4]: 24 h
- half-life ([3]; Swiss Webster, mouse, faeces, oral, fecal pellets, gnotobiotic mice with wildtype B. thetaiotaomicron, 100 μg/mL in drinking water for 4 days, read-out: half-life in vivo (converted)): 19 h
- degradation by B. thetaiotaomicron in vivo ([3]; comparison with germfree mice): does not degrade aTC in vivo
- time to detection after addition to drinking water ([3]; fecal pellets, 100 μg/mL): ≤ 24 h
- time to undetectable after removal from the water ([3]; fecal pellets, 100 μg/mL for 4 days): 6 days
